Structures can show the parent of a compound that is named as a salt. Where two headings read alike, the source gives them in different places.
System: THP-1 cells
Assay: THP-1 Soluble Protein Assay (LPS-stimulated; ELISA of TNF-a, TNF-R p75/80, TNF-R p55/60, IL-8)
Assay type: cell-based, human
Conditions: Homo sapiens
[1] = THP-1, read-out: THP % inhibition @ 3 µM, 3 µM
[2] = THP-1, 3 µM, read-out: THP % Inhibition @ 3µM

Description: Each vial of cells are cultured for about two weeks prior to being used for an assay and then are used for only 4 to 6 weeks to screen compounds.
Plates are placed into an incubator set at 5% CO2 and at 37° C. After 4 hours of incubation, 300 ml/well of tissue culture supernatant (TCS) is removed for use in an TNF-a ELISA.
Percent change in each soluble protein evaluated from the "vehicle positive control" was calculated for each compound concentration with the following formula: % Change =(pg/ml (compound) - pg/ml (veh pos control))/(pg/ml (veh pos control) - pg/ml (veh neg control))x 100 [formula]
For the soluble protein (TNF-a, p75/80, p55/60, IL-8) studies under stimulated conditions, the mean pg/ml of duplicate wells were determined and the results expressed as percent change from "vehicle positive control".

With `CC(C)(C)OC(=O)NCCCC#CCOc1ccc(S(=O)(=O)N2CCSC(C)(C)[C@@H]2C(=O)NO)cc1` [Example 250, tert-Butyl 6-[4-({(3S)-3-[(hydroxyamino)carbonyl]-2,2-dimethylthiomorpholinyl}sulfonyl)phenoxy]-4-hexynylcarbamate] the inhibition at 3 µM [1] was 27%.
`CC#CCOc1ccc(S(=O)(=O)N(CCCc2ccccc2)C(C(=O)NO)C(C)C)cc1` (centres unmarked) [Example 111, 2-[(4-But-2-ynyloxy-benzenesulfonyl)-(3-phenyl-propyl)-amino]-N-hydroxy-3-methyl-butyramide] gave an inhibition at 3 µM [1] of 35%.
`CC#CCOc1ccc(S(=O)(=O)N(C)C(C(=O)NO)c2ccc(OCCN3CCNCC3)cc2)cc1` (centres unmarked) [Example 186, 2-[{[4-(2-butynyloxy)phenyl]sulfonyl}(methyl)amino]-N-hydroxy-2-{4-[2-(1-piperazinyl)ethoxy]phenyl}acetamide] showed an inhibition at 3 µM [1] of 93%.
In the case of `CC#CCOc1ccc(S(=O)(=O)N2CCN(C(=O)OC)CC2C(=O)NO)cc1` (centres unmarked) [Example 228, 4-(4-But-2-ynyloxy-benzenesulfonyl)-3-hydroxycarbamoyl-piperazine-1-carboxylic acid methyl ester], the inhibition at 3 µM [1] is reported as 81%.
Compound `CC#CCOc1ccc(S(=O)(=O)N2C[C@H](CC(=O)N3CCN(C)CC3)SC(C)(C)[C@@H]2C(=O)NO)cc1` [Example 283, (3S,6S)-4-{[4-(2-Butynyloxy)phenyl]sulfonyl}-N-hydroxy-2,2-dimethyl-6-[2-(4-methyl-1-piperazinyl)-2-oxoethyl]-3-thiomorpholinecarboxamide hydrochloride] has an inhibition at 3 µM [2] of 90%.
Compound `CC#CCOc1ccc(S(=O)(=O)N[C@@H](C(=O)NO)c2ccc(OCCNC(=O)OC(C)(C)C)cc2)cc1` [Example 199, tert-Butyl 2-{4-[(1R)-1-({[4-(2-butynyloxy)phenyl]sulfonyl}amino)-2-(hydroxyamino)-2-oxoethyl]phenoxy}ethylcarbamate] has an inhibition at 3 µM [1] of 84%.
`CC#CCOc1ccc(S(=O)(=O)N(C)C(C(=O)NO)C(C)(C)SCCCN2CCOCC2)cc1` (centres unmarked) [Example 146] showed an inhibition at 3 µM [1] of 84%.
`CC1(C)SCCN(S(=O)(=O)c2ccc(OCC#CCCCCN)cc2)[C@H]1C(=O)NO` [Example 253, (3S)-4-({4-[(7-Amino-2-heptynyl)oxy]phenyl}sulfonyl)-N-hydroxy-2,2-dimethyl-3-thiomorpholine carboxamide] showed an inhibition at 3 µM [1] of 37%.
In the case of `CC#CCOc1ccc(S(=O)(=O)N(CC(C)C)C(C(=O)NO)C(C)C)cc1` (centres unmarked) [Example 113, 2-[(4-But-2-ynyloxy-benzenesulfonyl)-isobutyl-amino]-N-hydroxy-3-methyl-butyramide], the inhibition at 3 µM [1] is reported as 0%.
`C#CCN(C(C(=O)NO)C(C)C)S(=O)(=O)c1ccc(OCC#CC)cc1` (centres unmarked) [Example 109, 2-[{[4-(2-Butynyloxy)phenyl]sulfonyl}(2-propynyl)amino]-N-hydroxy-3-methylbutanamide] gave an inhibition at 3 µM [1] of 85%.
With `CC(C)(C)OC(=O)NCCC#CCOc1ccc(S(=O)(=O)N2CCSC(C)(C)C2C(=O)NO)cc1` (centres unmarked) [Example 245, tert-Butyl 5-[4-({3-[(hydroxyamino)carbonyl]-2,2-dimethyl-4-thiomorpholinyl}sulfonyl)phenoxy]-3-pentynylcarbamate] the inhibition at 3 µM [1] was 37%.
In the case of `CC(C)(C)OC(=O)NCC#CCOc1ccc(S(=O)(=O)N2CCSC(C)(C)C2C(=O)NO)cc1` (centres unmarked) [Example 266, tert-Butyl 4-[4-({3-[(hydroxyamino)carbonyl]-2,2-dimethyl-4-thiomorpholinyl}sulfonyl)phenoxy]-2-butynylcarbamate], the inhibition at 3 µM [1] is reported as 79%.
Compound `CC#CCOc1ccc(S(=O)(=O)N(C)C(C(=O)NO)C2CCCCC2)cc1` (centres unmarked) [Example 115, 2-[(4-But-2-ynyloxy-benzenesulfonyl)-methyl-amino]-2-cyclohexyl-N-hydroxy-acetamide] has an inhibition at 3 µM [1] of 89%.
`CC#CCOc1ccc(S(=O)(=O)N(C)C(C(=O)NO)c2ccc(OCCN3CCCC3=O)cc2)cc1` (centres unmarked) [Example 184, 2-[{[4-(2-Butynyloxy)phenyl]sulfonyl}(methyl)amino]-N-hydroxy-2-{4-[2-(2-oxo-1-pyrrolidinyl)ethoxy]phenyl}acetamide] showed an inhibition at 3 µM [1] of 94%.
For `CC#CCOc1ccc(S(=O)(=O)N2CCNCCC2C(=O)NO)cc1` (centres unmarked) [Example 292, 4-{[4-(2-Butynyloxy)phenyl]sulfonyl}-N-hydroxy-1,4-diazepane-5-carboxamide], the inhibition at 3 µM [2] was 83%.
For `CC#CCOc1ccc(S(=O)(=O)NC(C(=O)NO)c2ccc(OCCN(C)C)cc2)cc1` (centres unmarked) [Example 207, 2-({[4-(2-Butynyloxy)phenyl]sulfonyl}amino){4-[2-(dimethylamino)ethoxy]phenyl}-N-hydroxyacetamide], the inhibition at 3 µM [1] was 51%.
Compound `CC#CCOc1ccc(S(=O)(=O)N(CCCN2CCN(C)CC2)C(C(=O)NO)C(C)C)cc1` (centres unmarked) [Example 120, 2-{{[4-(2-Butynyloxy)phenyl]sulfonyl}[3-(4-methyl-1-piperazinyl)propyl]amino}-N-hydroxy-3-methylbutanamide hydrochloride] has an inhibition at 3 µM [1] of 61%.
For `CC1(C)SCCN(S(=O)(=O)c2ccc(OCC#CCO)cc2)[C@H]1C(=O)NO` [Example 260, (3S)-N-Hydroxy-4-({4-[(4-hydroxy-2-butynyl)oxy]phenyl}sulfonyl)-2,2-dimethyl-3-thiomorpholine carboxamide], the inhibition at 3 µM (THP-1, read-out: THP % inhibition @ 3 µM) was 95%.
For `CC#CCOc1ccc(S(=O)(=O)N(C)[C@@H](C(=O)NO)[C@H]2CC[C@H](O)CC2)cc1` [Example 130], the inhibition at 3 µM [1] was 92%.
With `CC#CCOc1ccc(S(=O)(=O)NC(C(=O)NO)c2ccc(OCCN3CCOCC3)cc2)cc1` (centres unmarked) [Example 206, 2-({[4-(2-Butynyloxy)phenyl]sulfonyl}amino)-N-hydroxy-2-{4-[2-(4-morpholinyl)ethoxy]phenyl}acetamide] the inhibition at 3 µM [1] was 70%.
`CC1(C)SCCN(S(=O)(=O)c2ccc(OCC#CCCCCO)cc2)[C@H]1C(=O)NO` [Example 269, (3S)-N-Hydroxy-4-({4-[(7-hydroxy-2-heptynyl)oxy]phenyl}sulfonyl)-2,2-dimethyl-3-thiomorpholinecarboxamide] showed an inhibition at 3 µM [1] of 77%.
`CC#CCOc1ccc(S(=O)(=O)N(CCN2CCOCC2)C(C(=O)NO)C(C)C)cc1` (centres unmarked) [Example 123, 2-[[[4-(2-Butynyloxy)phenyl]sulfonyl][2-(4-morpholinyl)ethyl]amino]-N-hydroxy-3-methylbutanamide] showed an inhibition at 3 µM [1] of 35%.
For `CC#CCOc1ccc(S(=O)(=O)N2CCNCC2C(=O)NO)cc1` (centres unmarked) [Example 214, 1-(4-But-2-ynyloxy-benzenesulfonyl)-piperazine-2-carboxylic acidhydroxyamide], the inhibition at 3 µM [1] was 71%.
With `CC#CCOc1ccc(S(=O)(=O)N2CCSC3(CCN(C)CC3)C2C(=O)NO)cc1` (centres unmarked) [Example 242, 9-methyl-4-{[4-(2-butynyloxy)phenyl]sulfonyl}-N-hydroxy-1-thia-4,9-diazaspiro[5.5]undecane-5-carboxamide] the inhibition at 3 µM [1] was 73%.
For `CC#CCOc1ccc(S(=O)(=O)N2C=CSC(C)(C)[C@@H]2C(=O)NO)cc1` [Example 379, (3S)-4-{[4-(2-Butynyloxy)phenyl]sulfonyl}-N-hydroxy-2,2-dimethyl-3,4-dihydro-2H-1,4-thiazine-3-carboxamide], the inhibition at 3 µM [2] was 85%.
Work on `CC#CCOc1ccc(S(=O)(=O)N2CCN(Cc3ccc(Br)cc3)CC2C(=O)NO)cc1` (centres unmarked) [Example 233, 4-(4-Bromo-benzyl)-1-(4-but-2-ynyloxy-benzenesulfonyl)-piperazine-2-carboxylic acid hydroxyamide] yielded an inhibition at 3 µM [1] of 33%.

From patent publication EP1144368B1, “ACETYLENIC ALPHA-AMINO ACID-BASED SULFONAMIDE HYDROXAMIC ACID TACE INHIBITORS” (priority 1999, dated 2000)
